Experimental data: BindingDB's records for doi:10.1016/s0968-0896(99)00215-1 (Parke-Davis Pharmaceutical Research, 1999)

target: T1, Dimer of Gag-Pol polyprotein [489-587] (Human immunodeficiency virus 1, UniProt P12497); assay: Protease Inhibition Assay; settings: not given
T1 construct: 489-587
Experimental: For determination of IC50 values, HIV-1 protease was added to assay buffer containing inhibitor and the substrate (H-His-Lys-Ala-Arg-Val-Leu- (p-NO2) Phe-Glu-Ala-norleucine-Ser-NH2). The Leu- (p-NO2) Phe bond of the substrate was cleaved by the enzyme, and the substrate and products were separated by reversed-phase HPLC. Absorbance was measured at 220 nm, peak areas were determined, and percentage conversion to product was calculated.

SMILES | IC50 [nM] | Ki [nM]
CCCCCC1(CCc2ccc(O)cc2)CC(=O)C(Sc2cc(C)c(OCCO)cc2C(C)(C)C)C(=O)O1 (stereo not drawn) [3-{[2-tert-butyl-4-(2-hydroxyethoxy)-5-methylphenyl]sulfanyl}-4-hydroxy-6-[2-(4-hydroxyphenyl)ethyl]-6-pentyl-5,6-dihydro-2H-pyran-2-one] | 2.9 | –
Cc1cc(SC2C(=O)C[C@@](CCc3ccc(O)cc3)(C(C)C)OC2=O)c(C(C)(C)C)cc1CO (stereo partly drawn) [(6S)-3-{[2-tert-butyl-4-(hydroxymethyl)-5-methylphenyl]sulfanyl}-4-hydroxy-6-[2-(4-hydroxyphenyl)ethyl]-6-(propan-2-yl)-5,6-dihydro-2H-pyran-2-one] | – | 0.09
CCCC1(CCc2ccc(O)cc2)CC(=O)C(Sc2cc(C)c(OCCO)cc2C(C)(C)C)C(=O)O1 (stereo not drawn) [3-{[2-tert-butyl-4-(2-hydroxyethoxy)-5-methylphenyl]sulfanyl}-4-hydroxy-6-[2-(4-hydroxyphenyl)ethyl]-6-propyl-5,6-dihydro-2H-pyran-2-one] | 6 | –
Cc1cc(SC2C(=O)C[C@](CCc3ccccc3)(C(C)C)OC2=O)c(C(C)(C)C)cc1CO (stereo partly drawn) [(6R)-3-{[2-tert-butyl-4-(hydroxymethyl)-5-methylphenyl]sulfanyl}-4-hydroxy-6-(2-phenylethyl)-6-(propan-2-yl)-5,6-dihydro-2H-pyran-2-one] | – | 160
Cc1cc(SC2C(=O)CC(CCc3ccc(N)cc3)(CC(C)C)OC2=O)c(C(C)(C)C)cc1CO (stereo not drawn) [6-[2-(4-aminophenyl)ethyl]-3-{[2-tert-butyl-4-(hydroxymethyl)-5-methylphenyl]sulfanyl}-4-hydroxy-6-(2-methylpropyl)-5,6-dihydro-2H-pyran-2-one] | 2.9 | –
Cc1cc(SC2C(=O)CC(CCc3ccccc3)(C(C)C)OC2=O)c(C(C)(C)C)cc1CO (stereo not drawn) [3-{[2-tert-butyl-4-(hydroxymethyl)-5-methylphenyl]sulfanyl}-4-hydroxy-6-(2-phenylethyl)-6-(propan-2-yl)-5,6-dihydro-2H-pyran-2-one] | 2.2 | –
Cc1cc(SC2C(=O)CC(CCc3ccccc3)(c3ccccc3)OC2=O)c(C(C)(C)C)cc1CO (stereo not drawn) [PD 178390 Analog 38] | 6.5 | –

same assay, conditions: pH 6.2; 37 °C

SMILES | IC50 [nM] | Ki [nM]
Cc1cc(SC2C(=O)CC(CCc3ccc(O)cc3)(C3CCC3)OC2=O)c(C(C)(C)C)cc1CO (stereo not drawn) [3-{[2-tert-butyl-4-(hydroxymethyl)-5-methylphenyl]sulfanyl}-6-cyclobutyl-4-hydroxy-6-[2-(4-hydroxyphenyl)ethyl]-5,6-dihydro-2H-pyran-2-one] | 2.2 | –
Cc1ccc(C(C)(C)C)c(SC2C(=O)CC(C)(CCc3ccc(O)cc3)OC2=O)c1 (stereo not drawn) [(3-(2-tert-Butyl-5-methyl-phenylsulfanyl)-4-hydroxy-6-[2-(4-hydroxy-phenyl)-ethyl]-6-methyl-5,6-dihydro-pyran-2-one] | 9.5 | –
Cc1ccc(C(C)(C)C)c(SC2C(=O)CC(CCc3ccc(O)cc3)OC2=O)c1 (stereo not drawn) [3-[(2-tert-butyl-5-methylphenyl)sulfanyl]-4-hydroxy-6-[2-(4-hydroxyphenyl)ethyl]-5,6-dihydro-2H-pyran-2-one] | 338 | –
Cc1cc(SC2C(=O)CC(CCc3ccc(O)cc3)(C(C)C)OC2=O)c(C(C)(C)C)cc1CO (stereo not drawn) [3-{[2-tert-butyl-4-(hydroxymethyl)-5-methylphenyl]sulfanyl}-4-hydroxy-6-[2-(4-hydroxyphenyl)ethyl]-6-(propan-2-yl)-5,6-dihydro-2H-pyran-2-one] | – | 0.17
Cc1cc(SC2C(=O)CC(CCc3ccc(O)cc3)(CC(C)C)OC2=O)c(C(C)(C)C)cc1CO (stereo not drawn) [3-{[2-tert-butyl-4-(hydroxymethyl)-5-methylphenyl]sulfanyl}-4-hydroxy-6-[2-(4-hydroxyphenyl)ethyl]-6-(2-methylpropyl)-5,6-dihydro-2H-pyran-2-one] | 3.3 | –
Cc1cc(SC2C(=O)CC(CCc3ccc(O)cc3)(C3CCCCC3)OC2=O)c(C(C)(C)C)cc1O (stereo not drawn) [3-(2-tert-Butyl-4-hydroxy-5-methyl-phenylsulfanyl)-6-cyclohexyl-4-hydroxy-6-[2-(4-hydroxy-phenyl)-ethyl]-5,6-dihydro-pyran-2-one] | 2.9 | –
